Converted amounts (≈) assume the structure as drawn.
Legend:
Format in all cases: cell-based
N. gonorrhoeae H041 = assay: Liquid broth MIC in Fastidious broth; conditions: Neisseria gonorrhoeae, H041, read-out: Minimum Inhibitory Concentration, N. gonorrhoeae H041
Procedure, shortened: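 Broth microdilution in Fastidious broth with 2-fold compound series; inoculum from 24 h chocolate agar colonies, 5×10^5 CFU/mL start. Incubated ~24 hours at 36° C, 5% CO2. MIC read visually as lowest concentration giving <10% growth versus full-growth wells; strains carry mosaic PBP2.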

[1] = tested on: K. pneumoniae SI-117 producing VIM-1; assay: Broth microdilution MIC in CAMHB; conditions: Klebsiella pneumoniae, read-out: Minimum Inhibitory Concentration, K. pneumoniae SI-117
Procedure, shortened: (§1)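 Standard CLSI-style microdilution in cation-adjusted Mueller Hinton broth, 2-fold dilution series, incubated 16-20 h at 37° C; endpoint was visual absence of growth.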

[2] = tested on: K. pneumoniae 848844 producing SHV-11 and KPC-2; assay: Broth microdilution MIC in CAMHB; conditions: Klebsiella pneumoniae, read-out: Minimum Inhibitory Concentration, K. pneumoniae 848844
Procedure, shortened: as §1

P. aeruginosa ATCC 27853 = assay: Broth microdilution MIC in CAMHB; conditions: Pseudomonas aeruginosa, ATCC27853; MHB; read-out: Minimum Inhibitory Concentration, P. aeruginosa ATCC 27853
Procedure, shortened: as §1

E. coli D22 = assay: Broth microdilution MIC in CAMHB; conditions: Escherichia coli; E. coli D22 (hyper-permeable); MHB; read-out: Minimum Inhibitory Concentration, E. coli D22
Procedure, shortened: as §1

[3] = tested on: P. aeruginosa (ΔmexAB-oprM); assay: Broth microdilution MIC in CAMHB; conditions: Pseudomonas aeruginosa, read-out: Minimum Inhibitory Concentration, P. aeruginosa ΔmexAB-OprM
Procedure, shortened: as §1

[4] = tested on: K. pneumoniae UMM producing SHV-5 and KPC-2; assay: Broth microdilution MIC in CAMHB; conditions: Klebsiella pneumoniae, read-out: Minimum Inhibitory Concentration, K. pneumoniae UMM
Procedure, shortened: as §1

E. coli ATCC 25922 = assay: Broth microdilution MIC in CAMHB; conditions: Escherichia coli, ATCC25922; E. coli ATCC 25922; MHB; read-out: Minimum Inhibitory Concentration, E. coli 25922
Procedure, shortened: as §1

E. coli AG100A = assay: Broth microdilution MIC in CAMHB; conditions: Escherichia coli, read-out: Minimum Inhibitory Concentration, E. coli AG100A
Procedure, shortened: as §1

E. coli 901C = assay: Broth microdilution MIC in CAMHB; conditions: Escherichia coli; E. coli 901C (hyper-permeable); MHB; read-out: Minimum Inhibitory Concentration, E. coli 901C
Procedure, shortened: as §1

P. aeruginosa ATCC 35151 = assay: Broth microdilution MIC in CAMHB; conditions: Pseudomonas aeruginosa, ATCC35151; MHB; hyper-permeable strain; read-out: Minimum Inhibitory Concentration, P. aeruginosa ATCC 35151
Procedure, shortened: as §1

E. coli AG100 = assay: Broth microdilution MIC in CAMHB; conditions: Escherichia coli; E. coli AG100 (wild-type parent); MHB; read-out: Minimum Inhibitory Concentration, E. coli AG100
Procedure, shortened: as §1

A. baumannii ATCC 19606 = assay: Broth microdilution MIC in CAMHB; conditions: Acinetobacter baumannii, ATCC19606; MHB; read-out: Minimum Inhibitory Concentration, A. baumannii ATCC 19606
Procedure, shortened: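 CLSI broth microdilution in CAMHB: 2-fold compound dilutions inoculated at 2-8×10^5 CFU/mL from 3-5 h log-phase cultures. Incubated at 37 °C for 16-20 h (Enterobacteriaceae, Pseudomonas); MIC read visually as lowest concentration without growth. Strains include hyper-permeable and efflux-deficient mutants.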

Structure (SMILES)	MIC (N. gonorrhoeae H041)	MIC [1]	MIC [2]	MIC (P. aeruginosa ATCC 27853)	MIC (E. coli D22)	MIC [3]	MIC [4]	MIC (E. coli ATCC 25922)	MIC (E. coli AG100A)	MIC (E. coli 901C)	MIC (P. aeruginosa ATCC 35151)	MIC (E. coli AG100)	MIC (A. baumannii ATCC 19606)
NCCN1CCN(C(=O)NC(C(=O)N[C@H]2Cc3cccc(C(=O)O)c3OB2O)c2c(F)cc(NS(N)(=O)=O)cc2F)C(=O)C1=O (stereo partly drawn) [Example 177, (3R)-3-(2-(4-(2-aminoethyl)-2,3-dioxopiperazine-1-carboxamido)-2-(2,6-difluoro-4-(sulfamoylamino)phenyl)acetamido)-2-hydroxy-3,4-dihydro-2H-benzo[e][1,2]oxaborinine-8-carboxylic acid]	> 64 µg/mL	> 128 µg/mL	> 128 µg/mL	> 128 µg/mL	32 to 64 µg/mL (≈ 49 to 98 µM)	32 to 64 µg/mL (≈ 49 to 98 µM)	> 128 µg/mL	> 128 µg/mL	8 to 16 µg/mL (≈ 12.2 to 24.5 µM)	2 to 4 µg/mL (≈ 3.06 to 6.12 µM)	2 to 4 µg/mL (≈ 3.06 to 6.12 µM)	> 128 µg/mL	> 128 µg/mL
CCN1CCN(C(=O)N[C@@H](C(=O)N[C@H]2Cc3cccc(C(=O)O)c3OB2O)c2ccc(C(=O)O)c(F)c2)C(=O)C1=O (single isomer, unassigned) [Example 146]	4 to 8 µg/mL (≈ 7.01 to 14 µM)	> 128 µg/mL	> 128 µg/mL	32 to 64 µg/mL (≈ 56.1 to 112 µM)	2 to 4 µg/mL (≈ 3.51 to 7.01 µM)	8 to 16 µg/mL (≈ 14 to 28.1 µM)	32 to 64 µg/mL (≈ 56.1 to 112 µM)	32 to 64 µg/mL (≈ 56.1 to 112 µM)	2 to 4 µg/mL (≈ 3.51 to 7.01 µM)	< 0.25 µg/mL	< 0.25 µg/mL	32 to 64 µg/mL (≈ 56.1 to 112 µM)	32 to 64 µg/mL (≈ 56.1 to 112 µM)
NCCN1CCN(C(=O)N[C@@H](C(=O)N[C@H]2Cc3cccc(C(=O)O)c3OB2O)c2cccc(NS(N)(=O)=O)c2)C(=O)C1=O (single isomer, unassigned) [Example 114]	> 64 µg/mL	32 to 64 µg/mL (≈ 51.8 to 104 µM)	32 to 64 µg/mL (≈ 51.8 to 104 µM)	> 128 µg/mL	8 to 16 µg/mL (≈ 13 to 25.9 µM)	2 to 4 µg/mL (≈ 3.24 to 6.48 µM)	32 to 64 µg/mL (≈ 51.8 to 104 µM)	32 to 64 µg/mL (≈ 51.8 to 104 µM)	2 to 4 µg/mL (≈ 3.24 to 6.48 µM)	2 to 4 µg/mL (≈ 3.24 to 6.48 µM)	0.5 to 1 µg/mL (≈ 0.81 to 1.62 µM)	32 to 64 µg/mL (≈ 51.8 to 104 µM)	> 128 µg/mL

— patent US20230114728A1 (Venatorx Pharmaceuticals, Inc., priority 2019, published 2023)
